Structures are written as SMILES.

Test [1] relates to YB5. In words: Cell cycle analysis and sub-G1 (propidium iodide). It is filed as cell-based, human. Conditions: four-day drug treatment. The protocol:
For drug screening and dose response validations, GFP positive cells were detected by Millipore Guava flow cytometer (EMD, Millipore). Cell cycle analysis was performed using BD FACSCalibur™ by propidium iodide staining four days after drug treatment. Sub-G1 population percentage was also included to measure apoptotic cell proportion. Data were analyzed using FlowJo software version 10.2. For the cell differentiation analysis, cells were washed and stained with propidium iodide (PI), CD11 b (BD Biosciences, #562793) and the isotype control IgG (BD Biosciences, #555748). Flow cytometry analysis was performed on a Millipore Guava flow cytometer (EMD, Millipore). For the ID8 in vivo experiments, ascites was drained from 5-10 mice per group and incubated in ACK buffer (Thermo Fisher) to lyse red blood cells for 10 minutes, then washed. Ascites from each mouse was individually lysed and prepared for flow cytometry. Mononuclear cells collected were cultured for 4 hours in RPMI with 5% Fetal Bovine Serum and in the presence of Cell Stimulation Cocktail (plus protein transport inhibitors; eBioscience). […] Flow cytometry acquisition was performed on an LSRII cytometer (BD Biosciences) and data were analyzed using FlowJo software version 10.2.

The test system of test [2] is SW48 and HCT116 cells. In words: qPCR for ERV expression. It is filed as cell-based, human. To be noted: Four-day treatment. As for the experimental part: Total RNA was extracted using TRIzol reagent (Invitrogen) following the manufacturer's protocol and RNA concentrations were measured using Nanodrop. cDNAs were synthesized using High Capacity cDNA Reverse Transcription Kit (ThermoFisher) and qPCR was performed using either ready-made TaqMan® assays or SYBR-green using custom-designed primers. All the data were analyzed using Applied Biosystems software (StepOne™ Software V2.3). For all experiments, relative expression levels of the target genes were determined by calculating the 2^−ΔΔCt values. All experiments were performed at least in triplicates. Either GAPDH or 18S rRNA was used as an internal normalization control for protein coding genes. RPLPO was used as an internal normalization control for ERVs. All SYBR-green primers were described previously and are listed in Table 1 along with TaqMan® probes used.

For `Nc1nc(N[C@H]2CC3CCC2C3)sc1C(=O)c1ccccc1[N+](=O)[O-]` (stereo partly drawn) [MC180295], in test [1], the cell cycle arrest result is on record as “no cell cycle arrest” and the sub-G1 subpopulation entry is given as “increase in the sub-G1 subpopulation”. Besides, the ERV expression result in test [2] was “activated the expression of several ERVs”.
